Read-outs that look alike come from different tables or passages of the source. Some results are limits rather than exact numbers.

The target of this assay is T1, HCV NS3 helicase (Hepatitis C virus genotype 1b, UniProt P26663).
T1 construct: full-length NS3 (1-631), purified at Array BioPharma
The experiment in a line: HCV Helicase Prompt FRET Assay (Example A). The assay is classed as biochemical. In short, it runs like this: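 Initial unwinding rates, monitored as FAM fluorescence gain (ex 485, em 535) over ~30 min at room temperature, gave IC50 via 4- or 5-parameter logistic fits. Reactions: 50 nM quenched duplex, 250 nM capture strand, 300 μM ATP, 5–6 nM NS3 1-631 after 5 min compound preincubation, MOPS pH 7.0 buffer, 2% DMSO.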

The mark [1] stands for this setting: Table 36, compounds made using Scheme 54, read-out: IC50 Activity.
Where [2] appears, read: HCV NS3 helicase, tables do not say whether Example A or Example B assay, read-out: IC50 Activity.
Where [3] appears, read: Table 35, compounds made using Scheme 53, read-out: IC50 Activity.
[4] abbreviates: Table 31, compounds made using Schemes 38-45, read-out: IC50 Activity.
[5] abbreviates: Table 21, compounds made using Scheme 28, read-out: IC50 Activity.

T1 sequence (P26663 1027-1657): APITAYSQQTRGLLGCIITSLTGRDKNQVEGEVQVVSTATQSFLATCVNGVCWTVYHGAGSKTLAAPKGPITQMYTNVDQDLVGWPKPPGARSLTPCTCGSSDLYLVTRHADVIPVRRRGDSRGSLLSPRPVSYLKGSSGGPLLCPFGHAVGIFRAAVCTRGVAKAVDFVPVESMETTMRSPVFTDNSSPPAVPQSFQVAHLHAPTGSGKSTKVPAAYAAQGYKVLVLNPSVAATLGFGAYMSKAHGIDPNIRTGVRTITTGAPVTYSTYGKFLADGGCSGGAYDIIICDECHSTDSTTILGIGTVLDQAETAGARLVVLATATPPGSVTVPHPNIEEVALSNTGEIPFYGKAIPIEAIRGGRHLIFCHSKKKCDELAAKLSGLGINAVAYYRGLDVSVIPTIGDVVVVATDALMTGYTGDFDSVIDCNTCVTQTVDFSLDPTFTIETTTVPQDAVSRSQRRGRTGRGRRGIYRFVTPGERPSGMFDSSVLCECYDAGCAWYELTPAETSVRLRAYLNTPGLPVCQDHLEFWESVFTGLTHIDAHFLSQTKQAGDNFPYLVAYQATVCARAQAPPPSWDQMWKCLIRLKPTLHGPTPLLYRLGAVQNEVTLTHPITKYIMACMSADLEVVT

For orientation: IC50 means the concentration that inhibits the measured activity by half. For `O=C(O)Cc1cn(Cc2csc3cccc(Cl)c23)c2cc(Br)ccc12` [Example 783], under setting [1], the 50% inhibitory concentration (IC50) is 10 to 50 µM.

`O=C(Cn1cc(Cc2nnn[nH]2)c2ccccc21)c1ccccc1` [Example 214]: under setting [2], the IC50 lay within 10 to 50 µM.

Regarding `COc1ccc(Oc2cccc(Cn3cc(CC(=O)O)c4ccccc43)c2)c(OC)c1` [Example 489], the IC50 under setting [2] was 10 to 50 µM.

Take `CC(C)c1ccc(Cn2cc(C(NC(N)=O)C(=O)O)c3ccccc32)cc1` (stereo not shown) [Example 423]: the IC50 under setting [2] fell in the range of 10 to 50 µM.

As to `Nc1cc(N)cc(-c2ccc3c(CC(=O)O)cn(Cc4cccc(-c5cccc(Cl)c5)c4)c3c2)c1` [Example 709], under setting [3], the IC50 lay in the range of 10 to 50 µM.

Turning to `CC(C)c1ccc(Cn2c(C(=O)Nc3cccc(S(C)(=O)=O)c3)c(CC(=O)O)c3ccccc32)cc1` [Example 460], the IC50 under setting [2] was below 10 µM.

Regarding `COc1ccc(-c2cccc(Cc3[nH]c4ccccc4c3CC(=O)O)c2)cc1` [Example 299], the IC50 under setting [2] was below 10 µM.

In the case of `CCn1c(Cc2csc3ccc(Cl)cc23)c(CC(=O)O)c2ccc(OCc3ccccc3)cc21` [Example 370], the IC50 under setting [2] is below 10 µM.

Take `Cc1cc(-c2cccc(Cn3cc(CC(=O)O)c4cc(OCc5ccccc5)ccc43)c2)on1` [Example 124]: the IC50 under setting [2] lay within 10 to 50 µM.

For the compound `O=C(O)Cc1cn(Cc2ccc(Cl)c(Cl)c2)c2ccc(Br)cc12` [Example 110], under setting [2], the IC50 was 10 to 50 µM.

On to `Nc1cc(-c2ccc3c(CC(=O)O)cn(Cc4csc5ccc(Cl)cc45)c3c2)cc([N+](=O)[O-])c1` [Example 365], for which the IC50 under setting [2] is below 10 µM.

`COc1cccc(Oc2ccc(Cn3cc(CC(=O)O)c4ccccc43)cc2)c1` [Example 499]: the IC50 under setting [2] was 10 to 50 µM.

In the case of `CC(C)c1ccc(Cn2cc(C(=O)C(=O)O)c3ccccc32)cc1` [Example 417], under setting [2], the IC50 was in the range of 10 to 50 µM.

In the case of `O=C(O)Cc1cn(-c2ccc(-c3cccc(C(F)(F)F)c3)cc2)c2ccccc12` [Example 152], the IC50 under setting [2] is below 10 µM.

On to `COc1ccc(N(C)c2cccc(Cn3cc(CC(=O)O)c4ccccc43)c2)cc1` [Example 528], for which the IC50 under setting [2] was below 10 µM.

Consider `O=C(O)Cc1c(Cc2ccc(-c3ccccc3Cl)cc2)[nH]c2ccc(Br)cc12` [Example 739], for which the IC50 under setting [2] was in the range of 10 to 50 µM.

Regarding `Cc1cc([N+](=O)[O-])ccc1C(C(=O)O)C1CN(c2ccc([N+](=O)[O-])cc2C)c2ccc(Br)cc21` (stereo not shown) [Example 406], under setting [2], the IC50 was 10 to 50 µM.

As for `O=C(O)Cc1cn(Cc2csc3ccc(F)cc23)c2ccc(Br)cc12` [Example 132], the IC50 under setting [2] lay in the range of 10 to 50 µM.

For the compound `Cc1ccccc1-c1ccc2c(CC(=O)O)cn(Cc3csc4ccc(Cl)cc34)c2c1` [Example 626], under setting [4], the IC50 was below 10 µM.

On to `Cc1cc([N+](=O)[O-])ccc1C(C(=O)O)C1CN(c2ccc([N+](=O)[O-])cc2C)c2ccc(Br)cc21` (stereo not shown) [Example 404], for which, under setting [2], the IC50 lay within 10 to 50 µM.

For `CC(C)c1ccc(Cn2c(C(=O)NCc3ccc(C(F)(F)F)cc3)c(CC(=O)O)c3ccccc32)cc1` [Example 455], the IC50 under setting [2] was below 10 µM.

For `CN(c1cccc(Cn2cc(CC(=O)O)c3ccccc32)c1)c1ccc(C(F)(F)F)cc1C(F)(F)F` [Example 545], the IC50 under setting [2] was in the range of 10 to 50 µM.

In the case of `O=C(O)Cc1c(Cc2cccc(-c3cccc(C(F)(F)F)c3)c2)[nH]c2ccccc12` [Example 296], the half-inhibitory concentration (IC50) under setting [2] is below 10 µM.

On to `CCC(C)N(Cc1ccccc1)c1ccc(-n2cc(CC(=O)O)c3ccccc32)cc1` (stereo not shown) [Example 171], for which, under setting [2], the IC50 was below 10 µM.

For the compound `Cc1cc([N+](=O)[O-])ccc1Cc1cn(-c2ccc([N+](=O)[O-])cc2C)c2ccc(Br)cc12` [Example 399], under setting [2], the IC50 lay within 10 to 50 µM.

Take `CNc1cc(NC)cc(-c2ccc3c(CC(=O)O)cn(Cc4csc5ccc(Cl)cc45)c3c2)c1` [Example 646]: the IC50 under setting [4] was below 10 µM.

On to `O=C(O)Cc1cn(Cc2ccc(Oc3ccccc3F)cc2)c2ccccc12` [Example 493], for which, under setting [2], the IC50 is below 10 µM.

As for `CCOC(=O)Cc1cn(Cc2ccc(Oc3cccc(OCC)c3)cc2)c2cc(-c3cccc(OC(C)=O)c3)ccc12` [Example 604], the IC50 under setting [2] is above 50 µM.

As to `Cc1cc([N+](=O)[O-])ccc1-n1cc(C(O)(C(=O)O)C(F)(F)F)c2cc(Br)ccc21` (stereo not shown) [Example 392], the IC50 under setting [2] is below 10 µM.

Regarding `Nc1cc(N)cc(-c2ccc3c(CC(=O)O)cn(Cc4csc5c(Cl)cccc45)c3c2)c1` [Example 725], the IC50 under setting [1] lay in the range of 10 to 50 µM.

Turning to `CC(C)(C)OC(=O)Nc1nnc(-c2ccc3c(CC(=O)O)cn(Cc4csc5ccc(Cl)cc45)c3c2)s1` [Example 659], under “Table 32, compounds made using Schemes 46-49, read-out: IC50 Activity”, the half-maximal inhibitory concentration (IC50) lay in the range of 10 to 50 µM.

For `COC(=O)/C=C/c1cnc2c(c1)c(/C=C/C(=O)OC)cn2-c1ccc([N+](=O)[O-])cc1C` [Example 322], under setting [2], the IC50 is 10 to 50 µM.

For `Nc1cccc(-c2ccc3c(CC(=O)O)cn(Cc4csc5ccc(Cl)cc45)c3c2)c1` [Example 765], the concentration for half-maximal inhibition (IC50) (Table 37, compounds made using Scheme 55, read-out: IC50 Activity) is below 10 µM.

As for `CCN(CC)C(=O)C(=O)c1cn(-c2ccc([N+](=O)[O-])cc2C)c2ccc(Br)cc12` [Example 385], the IC50 under setting [2] was above 50 µM.

As for `CN(c1ccc(Cn2cc(CC(=O)O)c3ccccc32)cc1)c1cccc(C(F)(F)F)c1` [Example 566], the half-maximal inhibitory concentration (IC50) under setting [5] is below 10 µM.

Regarding `O=C(O)Cc1c(C(=O)c2cccc(-c3cc(Cl)cc(Cl)c3)c2)oc2ccccc12` [Example 244], the IC50 under setting [2] was below 10 µM.

Consider `O=C(O)Cc1c(C(=O)c2cccc(-c3ccc(Cl)c(Cl)c3)c2)[nH]c2ccccc12` [Example 240], for which the IC50 under setting [2] is below 10 µM.

With `CC(C)NC(=O)c1c(CC(=O)O)c2cc(Br)ccc2n1Cc1ccc(C(C)C)cc1` [Example 433], the half-maximal inhibitory concentration (IC50) under setting [2] was 10 to 50 µM.

As to `CN(Cc1ccccc1)c1ccc(-n2cc(C(O)(C(=O)O)C(F)(F)F)c3ccccc32)cc1` (stereo not shown) [Example 425], the IC50 under setting [2] was below 10 µM.

Regarding `O=C(O)Cc1c(Cc2ccc(-c3ccccc3C(F)(F)F)cc2)[nH]c2ccccc12` [Example 285], the IC50 under setting [2] was below 10 µM.

For the compound `Nc1cc(-c2ccc3c(CC(=O)NOCc4ccccc4)cn(Cc4csc5ccc(Cl)cc45)c3c2)cc([N+](=O)[O-])c1` [Example 689], the IC50 (Table 34, compounds made using Schemes 51-52, read-out: IC50 Activity) is above 50 µM.

Consider `CC(C)c1ccc(Cn2cc(CC(=O)O)c3cc(OCc4ccccc4)ccc32)cc1` [Example 114], for which, under setting [2], the IC50 was in the range of 10 to 50 µM.

Turning to `O=C(O)Cc1c(C(=O)Cc2ccc(F)cc2)n(Cc2ccccc2)c2ccccc12` [Example 259], under setting [2], the IC50 was 10 to 50 µM.

In the case of `O=C(O)Cc1cn(Cc2ccccc2C(F)(F)F)c2ccc(Br)cc12` [Example 103], under setting [2], the IC50 was 10 to 50 µM.

As for `CC(=O)N(C)c1ccc(-n2cc(CC(=O)O)c3ccccc32)c(C)c1` [Example 160], the IC50 under setting [2] was 10 to 50 µM.

In the case of `O=C(O)Cc1c(C(=O)c2ccc(-c3cccc(CO)c3)cc2)[nH]c2ccccc12` [Example 264], the IC50 under setting [2] lay in the range of 10 to 50 µM.

Take `Cc1cc([N+](=O)[O-])ccc1-n1cc(I)c2cc(Br)cnc21` [Example 320]: the IC50 under setting [2] was above 50 µM.

As to `CC(C)(c1nnn[nH]1)c1cn(Cc2csc3ccc(Cl)cc23)c2ccccc12` [Example 216], the IC50 under setting [2] is 10 to 50 µM.

For the compound `COc1ccc(N(C)c2ccc(Cn3cc(CC(=O)O)c4ccccc43)cc2)c(OC)c1` [Example 577], the IC50 under setting [5] was 10 to 50 µM.

For `O=C(O)Cc1cn(Cc2ccc(Oc3cc(F)ccc3F)cc2)c2ccccc12` [Example 586], the IC50 under setting [2] is below 10 µM.

As for `O=S(=O)(NCc1ccc2c(c1)c(Cc1nn[nH]n1)cn2Cc1csc2ccc(Cl)cc12)c1ccccc1` [Example 210], under setting [2], the IC50 is below 10 µM.

On to `CCOC(=O)Cc1cn(Cc2cccc3sc(Cl)nc23)c2cc(-c3cc([N+](=O)[O-])cc([N+](=O)[O-])c3)ccc12` [Example 793], for which the IC50 under setting [3] fell in the range of 10 to 50 µM.

`CC(=O)Nc1cc(NC(C)=O)cc(-c2ccc3c(CC(=O)O)cn(Cc4csc5ccc(Cl)cc45)c3c2)c1` [Example 648]: the IC50 under setting [4] was below 10 µM.

As to `O=C(O)Cc1cn(Cc2cccc(Oc3ccc(Cl)c(Cl)c3)c2)c2ccccc12` [Example 486], under setting [2], the IC50 was below 10 µM.

As to `CN(c1cccc(Cl)c1)c1cccc(Cn2cc(CC(=O)O)c3ccccc32)c1` [Example 524], the IC50 under setting [2] is below 10 µM.

Regarding `COc1ccc2c(CC(=O)O)cn(-c3ccc([N+](=O)[O-])cc3C)c2c1` [Example 341], the IC50 under setting [2] is above 50 µM.

In the case of `CC(C)c1ccc(Cn2c(C(=O)Nc3ccccc3)c(CC(=O)O)c3cc(Br)ccc32)cc1` [Example 456], the IC50 under setting [2] is below 10 µM.

Regarding `Cc1sc2ccc(Cl)cc2c1Cn1cc(CC(=O)O)c2ccc(-c3cc(N)cc(N)c3)cc21` [Example 778], the half-maximal inhibitory concentration (IC50) under setting [1] is below 10 µM.

`CC(C)N(Cc1ccccc1)c1ccc(-n2cc(CC(=O)O)c3ccccc32)cc1` [Example 167]: the IC50 under setting [2] is below 10 µM.

With `O=C(O)Cc1c(Cc2csc3ccc(Cl)cc23)[nH]c2ccc(Br)cc12` [Example 374], the IC50 under setting [2] is 10 to 50 µM.

Regarding `COC(=O)C(c1ccccc1)c1cn(-c2ccc([N+](=O)[O-])cc2C)c2ccc(Br)cc12` (stereo not shown) [Example 387], the IC50 reads like this: (2nd test, read-out: IC50 Activity (on 2nd test)) above 50 µM; under setting [2], 10 to 50 µM.

With `COc1ccccc1Oc1cccc(Cn2cc(CC(=O)O)c3ccccc32)c1` [Example 478], the IC50 under setting [2] lay in the range of 10 to 50 µM.

With `CC(C)c1ccc(Cn2cc(CC(=O)O)c3ccccc32)cc1` [Example 424], the IC50 under setting [2] fell in the range of 10 to 50 µM.

Take `Cc1cc([N+](=O)[O-])ccc1-n1cc(CC(=O)O)c2cc3c(cc21)OCO3` [Example 344]: under setting [2], the half-maximal inhibitory concentration (IC50) is above 50 µM.

Regarding `O=C(O)Cc1c(Cc2ccc(-c3ccccc3Cl)cc2)[nH]c2ccc(Br)cc12` [Example 294], the IC50 under setting [2] was below 10 µM.

As for `CCOC(=O)Cc1cn(Cc2c(-c3cccc(Cl)c3)sc3ccccc23)c2cc(-c3cc([N+](=O)[O-])cc([N+](=O)[O-])c3)ccc12` [Example 714], the IC50 under setting [1] lay in the range of 10 to 50 µM.

The values are drawn from patent US20090047246A1, “NOVEL INHIBITORS OF HEPATITIS C VIRUS REPLICATION” (InterMune, Inc., priority 2007, published 2009).
